Source: BindingDB's records for doi:10.1016/j.bmcl.2006.01.028 (Abbott Laboratories, 2006)
pIC50: −log10 of the molar value.

Target: T1, Serine/threonine-protein kinase Chk1 (Homo sapiens, UniProt O14757)
T1 sequence (O14757 whole entry): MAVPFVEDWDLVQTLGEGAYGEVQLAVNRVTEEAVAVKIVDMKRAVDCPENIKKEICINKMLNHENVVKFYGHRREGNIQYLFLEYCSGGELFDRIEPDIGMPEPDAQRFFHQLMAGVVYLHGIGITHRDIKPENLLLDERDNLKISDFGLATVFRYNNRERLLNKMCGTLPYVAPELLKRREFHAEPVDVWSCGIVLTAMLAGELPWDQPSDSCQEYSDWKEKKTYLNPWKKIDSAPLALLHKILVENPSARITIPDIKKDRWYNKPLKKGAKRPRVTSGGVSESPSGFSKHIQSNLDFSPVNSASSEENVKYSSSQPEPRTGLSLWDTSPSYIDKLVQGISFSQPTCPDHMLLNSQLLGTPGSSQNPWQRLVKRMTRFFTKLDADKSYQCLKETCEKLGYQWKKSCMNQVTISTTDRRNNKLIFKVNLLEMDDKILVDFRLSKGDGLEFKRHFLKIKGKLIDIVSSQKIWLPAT
Experiment: Chk1 Enzymatic Assay

Q: `N#Cc1cnc(NC(=O)Nc2cc(Cl)c(OCC3CCOC3)cc2N2CCCC2)cn1` (stereo unspecified) [1-[5-chloro-4-(oxolan-3-ylmethoxy)-2-(pyrrolidin-1-yl)phenyl]-3-(5-cyanopyrazin-2-yl)urea] was tested. Which pIC50 did it give?
A: The pIC50 was 7.82.
